In patent publication US20240116985A1, “STAPLED PEPTIDES AND METHODS THEREOF” (priority 2020, published 2024):

Biological target: T1, full-length beta-Catenin (Uniprot ID P35222) (Homo sapiens, UniProt P35222)
T1 construct: 10 nM full-length beta-Catenin (Uniprot ID P35222)
T1 sequence (P35222 1-781): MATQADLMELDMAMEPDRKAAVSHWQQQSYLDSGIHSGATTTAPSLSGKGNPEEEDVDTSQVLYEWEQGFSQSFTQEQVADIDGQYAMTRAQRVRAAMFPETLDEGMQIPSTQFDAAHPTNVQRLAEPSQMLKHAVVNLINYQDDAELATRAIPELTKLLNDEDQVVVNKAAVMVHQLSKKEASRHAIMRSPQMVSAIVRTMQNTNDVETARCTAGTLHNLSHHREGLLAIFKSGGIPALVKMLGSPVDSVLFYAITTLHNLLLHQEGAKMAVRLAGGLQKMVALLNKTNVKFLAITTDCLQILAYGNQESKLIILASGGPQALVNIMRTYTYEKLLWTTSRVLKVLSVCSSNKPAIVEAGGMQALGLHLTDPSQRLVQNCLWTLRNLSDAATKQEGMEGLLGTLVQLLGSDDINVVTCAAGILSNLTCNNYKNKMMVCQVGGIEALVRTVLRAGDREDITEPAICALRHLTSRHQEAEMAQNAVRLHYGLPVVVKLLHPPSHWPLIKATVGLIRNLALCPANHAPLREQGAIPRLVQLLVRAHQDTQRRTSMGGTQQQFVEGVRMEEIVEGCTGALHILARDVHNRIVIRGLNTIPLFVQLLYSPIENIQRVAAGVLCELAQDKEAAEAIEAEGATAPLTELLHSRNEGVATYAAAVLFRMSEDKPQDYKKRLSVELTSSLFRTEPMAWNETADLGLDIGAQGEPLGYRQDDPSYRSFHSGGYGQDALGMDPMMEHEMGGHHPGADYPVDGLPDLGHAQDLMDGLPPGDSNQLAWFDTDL
Assay: Fluorescence polarization IC50 (beta-catenin / 5FAM-TCF4 10-53 competition)
Format: binding
Settings: fluorescence polarization; read-out: beta-Catenin FP IC50

First: CC(=O)N1CCC[C@]12CC=CCCCC1(CCCC=CCCCOC(=O)N3CC[C@@](C(=O)N[C@@H](Cc4ccccc4)C(=O)N[C@@H](Cc4csc5ccccc45)C(=O)N[C@@H](CCC(N)=O)C(N)=O)(C3)NC(=O)[C@H](CC(C)C)NC(=O)[C@H](Cc3ccc(-c4cccnc4)cc3)NC(=O)[C@H](C)NC(=O)[C@H](C)NC(=O)[C@H](CC(=O)O)NC(=O)[C@H](CC(=O)O)NC1=O)NC(=O)[C@H](CC(C)(C)C)NC(=O)[C@H](CC(=O)O)NC2=O (stereo partly drawn) [I-1490, Ac-PL3-Asp-Npg-B5-Asp-Asp-Ala-Ala-[3Py]4SF-Leu-PyrS2-Phe-BztA-Gln-NH2]
Second: CC(=O)N1CCC[C@]12CC=CCCCC1(CCCC=CCCCOC(=O)N3CC[C@@](C(=O)N[C@@H](Cc4ccsc4)C(=O)N[C@@H](Cc4csc5ccccc45)C(=O)N[C@@H](CCC(N)=O)C(N)=O)(C3)NC(=O)[C@H](CC(C)C)NC(=O)[C@H](Cc3ccccc3)NC(=O)[C@H](C)NC(=O)[C@H](C)NC(=O)[C@H](CC(=O)O)NC(=O)[C@H](CC(=O)O)NC1=O)NC(=O)[C@H](Cc1ccccc1)NC(=O)[C@H](CC(=O)O)NC2=O (stereo partly drawn) [I-1509, Ac-PL3-Asp-Phe-B5-Asp-Asp-Ala-Ala-Phe-Leu-PyrS2-3Thi-BztA-Gln-NH2]
The IC50 of the first is 21-fold higher: 226 nM for the first, 11 nM for the second. The second is the more potent here.

`CC(=O)N1CCC[C@]12CC=CCCCC1(CCCC=CCCCCCC[C@@](C)(C(=O)N[C@@H](Cc3ccccc3Cl)C(=O)N[C@@H](Cc3csc4ccccc34)C(=O)N[C@H](CO)[C@@H](C)O)NC(=O)[C@H](CCO)NC(=O)[C@H](Cc3ccccc3)NC(=O)[C@H](C)NC(=O)[C@H](C)NC(=O)[C@H](CC(=O)O)NC(=O)[C@H](CC(=O)O)NC1=O)NC(=O)[C@H](CC(C)(C)C)NC(=O)[C@H](CC(=O)O)NC2=O` (stereo partly drawn) [I-1491, Ac-PL3-Asp-Npg-B5-Asp-Asp-Ala-Ala-Phe-Hse-S8-2C1F-BztA-Thro1] and `CC(=O)N1CCC[C@]12CC=CCCCC1(CCCC=CCCCCCC[C@@](C)(C(=O)N[C@@H](Cc3ccccc3)C(=O)N[C@@H](Cc3csc4ccccc34)C(=O)N[C@@H](CCC(N)=O)C(N)=O)NC(=O)[C@H](CC(C)C)NC(=O)[C@H](Cc3ccccc3)NC(=O)[C@H](C)NC(=O)[C@H](C)NC(=O)[C@H](CCC(=O)O)NC(=O)[C@H](CC(=O)O)NC1=O)NC(=O)[C@H](CCC(C)C)NC(=O)[C@H](CC(=O)O)NC2=O` (stereo partly drawn) [I-1536, Ac-PL3-Asp-Hleu-B5-Asp-Glu-Ala-Ala-Phe-Leu-S8-Phe-BztA-Gln-NH2] are within 1.5-fold of each other in IC50: 34 nM for the first, 42 nM for the second.

First: CC(=O)N1CCC[C@]12CC=CCCCC1(CCCC=CCCCOC(=O)N3CC[C@@](C(=O)N[C@@H](Cc4ccsc4)C(=O)N[C@@H](Cc4csc5ccccc45)C(=O)N[C@@H](Cc4c[nH]nn4)C(N)=O)(C3)NC(=O)[C@H](CC(C)C)NC(=O)[C@H](Cc3ccccc3)NC(=O)[C@H](C)NC(=O)[C@H](C)NC(=O)[C@H](CC(=O)O)NC(=O)[C@H](CC(=O)O)NC1=O)NC(=O)[C@H](CC(C)(C)C)NC(=O)[C@H](CC(=O)O)NC2=O (stereo partly drawn) [I-1498, Ac-PL3-Asp-Npg-B5-Asp-Asp-Ala-Ala-Phe-Leu-PyrS2-3Thi-BztA-4TriA-NH2]
Second: CC(=O)N1CCC[C@]12CC=CCCCC1(CCCC=CCCCOC(=O)N3CC[C@@](C(=O)N[C@@H](Cc4ccsc4)C(=O)N[C@@H](Cc4csc5ccccc45)C(=O)N[C@@H](CCO)C(N)=O)(C3)NC(=O)[C@H](CC(C)C)NC(=O)[C@H](Cc3ccccc3)NC(=O)[C@H](C)NC(=O)[C@H](C)NC(=O)[C@H](CC(=O)O)NC(=O)[C@H](CC(=O)O)NC1=O)NC(=O)[C@H](CO)NC(=O)[C@H](CC(=O)O)NC2=O (stereo partly drawn) [I-1514, Ac-PL3-Asp-Ser-B5-Asp-Asp-Ala-Ala-Phe-Leu-PyrS2-3Thi-BztA-Hse-NH2]
The IC50 of the first is 1.8-fold higher: 48 nM for the first, 27 nM for the second. The second is the more potent here.

First: CC(=O)N1CCC[C@]12CC=CCCCC1(CCCC=CCCCOC(=O)N3CC[C@@](C(=O)N[C@@H](Cc4ccsc4)C(=O)N[C@@H](Cc4csc5ccccc45)C(=O)N[C@@H](CCC(N)=O)C(N)=O)(C3)NC(=O)[C@H](CC(C)C)NC(=O)[C@H](Cc3ccccc3)NC(=O)[C@H](CCCN3CCN(C)CC3)NC(=O)[C@H](C)NC(=O)[C@H](CC(=O)O)NC(=O)[C@H](CC(=O)O)NC1=O)NC(=O)[C@H](CC(C)(C)C)NC(=O)[C@H](CC(=O)O)NC2=O (stereo partly drawn) [I-1503, Ac-PL3-Asp-Npg-B5-Asp-Asp-Ala-MePpzNva-Phe-Leu-PyrS2-3Thi-BztA-Gln-NH2]
Second: CC(=O)N1CCC[C@]12CC=CCCCC1(CCCC=CCCCOC(=O)N3CC[C@@](C(=O)N[C@@H](Cc4ccsc4)C(=O)N[C@@H](Cc4csc5ccccc45)C(=O)N[C@@H](CCC(N)=O)C(N)=O)(C3)NC(=O)[C@H](CC(C)C)NC(=O)[C@H](Cc3ccccc3)NC(=O)[C@H](CCN3CCN(C)CC3)NC(=O)[C@H](C)NC(=O)[C@H](CC(=O)O)NC(=O)[C@H](CC(=O)O)NC1=O)NC(=O)[C@H](CC(C)(C)C)NC(=O)[C@H](CC(=O)O)NC2=O (stereo partly drawn) [I-1506, Ac-PL3-Asp-Npg-B5-Asp-Asp-Ala-MePpzAbu-Phe-Leu-PyrS2-3Thi-BztA-Gln-NH2]
The IC50 of the first is 2.3-fold lower: 38 nM for the first, 89 nM for the second. The first is the more potent here.

Compared with `CC(=O)N1CCC[C@]12CC=CCCCC1(CCCC=CCCCOC(=O)N3CC[C@@](C(=O)N[C@@H](Cc4ccsc4)C(=O)N[C@@H](Cc4csc5ccccc45)C(=O)N[C@@H](CCC(N)=O)C(N)=O)(C3)NC(=O)[C@H](CC(C)C)NC(=O)[C@H](Cc3ccccc3)NC(=O)[C@H](CC(=O)N3CCN(C)CC3)NC(=O)[C@H](C)NC(=O)[C@H](CC(=O)O)NC(=O)[C@H](CC(=O)O)NC1=O)NC(=O)[C@H](CC(C)(C)C)NC(=O)[C@H](CC(=O)O)NC2=O` (stereo partly drawn) [I-1508, Ac-PL3-Asp-Npg-B5-Asp-Asp-Ala-MePpzAsn-Phe-Leu-PyrS2-3Thi-BztA-Gln-NH2], `CC(=O)N1CCC[C@]12CC=CCCCC1(CCCC=CCCCOC(=O)N3CC[C@@](C(=O)N[C@@H](Cc4ccsc4)C(=O)N[C@@H](Cc4csc5ccccc45)C(=O)N[C@@H](CCO)C(N)=O)(C3)NC(=O)[C@H](CC(C)C)NC(=O)[C@H](Cc3ccccc3)NC(=O)[C@H](C)NC(=O)[C@H](C)NC(=O)[C@H](CC(=O)O)NC(=O)[C@H](CC(=O)O)NC1=O)NC(=O)[C@H](CC(N)=O)NC(=O)[C@H](CC(=O)O)NC2=O` (stereo partly drawn) [I-1518, Ac-PL3-Asp-Asn-B5-Asp-Asp-Ala-Ala-Phe-Leu-PyrS2-3Thi-BztA-Hse-NH2] is 3.8-fold lower in IC50: 87 nM for the first, 23 nM for the second. The second is the more potent here.

Going from `CC(=O)N1CCC[C@]12CC=CCCCC1(CCCC=CCCCCCC[C@@](C)(C(=O)N[C@@H](Cc3ccccc3)C(=O)N[C@@H](Cc3csc4ccccc34)C(=O)N[C@@H](CCC(N)=O)C(N)=O)NC(=O)[C@H](CCC(N)=O)NC(=O)[C@H](Cc3ccccc3)NC(=O)[C@H](C)NC(=O)[C@H](C)NC(=O)[C@H](CCC(=O)O)NC(=O)[C@H](CC(=O)O)NC1=O)NC(=O)[C@H](CCC(N)=O)NC(=O)[C@H](CC(=O)O)NC2=O` (stereo partly drawn) [I-1540, Ac-PL3-Asp-Gln-B5-Asp-Glu-Ala-Ala-Phe-Gln-S8-Phe-BztA-Gln-NH2] to `CC(=O)N1CCC[C@]12CC=CCCCC1(CCCC=CCCCCCC[C@@](C)(C(=O)N[C@@H](Cc3ccccc3)C(=O)N[C@@H](Cc3csc4ccccc34)C(=O)N[C@@H](CCC(N)=O)C(N)=O)NC(=O)[C@H](CC(C)C)NC(=O)[C@H](Cc3ccccc3)NC(=O)[C@H](C)NC(=O)[C@H](C)NC(=O)[C@H](CCC(=O)O)NC(=O)[C@H](CC(=O)O)NC1=O)NC(=O)[C@H](CCC(N)=O)NC(=O)[C@H](CC(=O)O)NC2=O` (stereo partly drawn) [I-1541, Ac-PL3-Asp-Gln-B5-Asp-Glu-Ala-Ala-Phe-Leu-S8-Phe-BztA-Gln-NH2], the IC50 rises from 17 nM to 39 nM (2.3-fold).
